Assay results from US8153385B2, “Target protein and target gene in drug designing and screening method” (Reverse Proteomics Research Institute Co., Ltd., priority 2004, dated 2012).

Molecular target: T1, FLJ13397 clone-derived protein (CARP) (Homo sapiens, UniProt Q9H8M7)
T1 construct: A human full-length cDNA clone was expressed as a protein with an N-terminal His tag; His tag (pDEST17 Gateway vector) (N); made in house; host or cells: Escherichia coli BL21star(DE3)pLysS
T1 sequence (Q9H8M7 1-445): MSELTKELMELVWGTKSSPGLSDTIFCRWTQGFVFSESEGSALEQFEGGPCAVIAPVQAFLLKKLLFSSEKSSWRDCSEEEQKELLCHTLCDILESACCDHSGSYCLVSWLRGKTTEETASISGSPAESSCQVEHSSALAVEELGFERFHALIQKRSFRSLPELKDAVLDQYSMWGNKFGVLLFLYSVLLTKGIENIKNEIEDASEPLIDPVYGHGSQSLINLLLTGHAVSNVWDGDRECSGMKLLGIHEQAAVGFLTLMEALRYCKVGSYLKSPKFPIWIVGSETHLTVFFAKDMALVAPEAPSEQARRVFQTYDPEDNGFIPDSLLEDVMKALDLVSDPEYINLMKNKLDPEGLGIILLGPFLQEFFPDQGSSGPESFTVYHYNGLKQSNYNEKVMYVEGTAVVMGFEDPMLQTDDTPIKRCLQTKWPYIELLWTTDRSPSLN
Assay: SEC/MS (size exclusion chromatography / mass analysis) interaction analysis between FLJ13397 clone-derived protein and compounds
Assay type: binding
Description: BP-reaction was performed on human full-length cDNA clone and the cloning vector Gateway pDONR201 by the PCR cloning method using the Invitrogen Gateway system to yield an entry clone. LR-reaction was performed on this entry clone with the destination vector pDEST17 (Gateway System) and LR Clonase at 25° C. for 60 minutes to yield an expression plasmid. Escherichia coli competent cell BL21star(DE3)pLysS were transformed with this expression plasmid, a clone incorporating the expression vector was selected, and a frozen stock was prepared. The transformant was inoculated into LB medium and precultured, after which it was transferred into SB medium and cultured to induce the expression by IPTG, and the cells were stored frozen.
A human full-length cDNA clone was expressed as a protein with an N-terminal His tag. This clone was purified using BioRobot 8000 (Qiagen) or ACTA Crystal (Amersham). […] In the purification with ACTA Crystal, affinity purification using a HisTrap HP column was followed by gel filtration purification using the Gel Filtration Column HiLoad 16/60 or a 10/30 Superdex 75 prep grade column. The purified fraction was used for interaction analysis after being subjected to SDS-PAGE to verify the estimated molecular weight and purity.
To analyze the interactions between commonly used drugs and proteins expressed from human full-length cDNA clones while keeping both the proteins and the compounds in non-modified, non-immobilized state, size exclusion chromatography (SEC) and mass analysis were used in combination (FIGS. 1 and 2). The specific procedures are shown below.
The compound-protein mixture prepared in step 1 was subjected to chromatography using an SEC column, the compound and the protein were separated by SEC, and the bound compound or compound that interacted with the protein in the protein fraction was analyzed using a mass analyzer.
Protein concentrations were measured using BCA Protein Assay (PIERCE), in consideration of the purity calculated by SDS-PAGE.
Mass analysis was performed using LCQ DECA XP (Thermoelectron) or Q-TOFmicro (Micromass), equipped with an ESI probe. The LC pump used was Agilent 1100 (Yokogawa Analytical Systems), and the autosampler used was HTC-PAL (CTC Analytics) equipped with a cooling stacker.
In the SEC method using a 384-well spin column, Unifilter 100 (Whatman), packed with 10 μL (dry volume) of Bio-Gel P6 (BIO-RAD) and swollen with milliQ water, was used as the SEC column. […] The SEC spin column was mounted on an acetonitrile-aliquoted 384-well U-bottom plate and centrifuged; the SEC spin column filtrate, which is a protein fraction, was retrieved in 50% acetonitrile. The protein precipitate produced by the acetonitrile was removed via centrifugation and filtration for protein removal; the resulting filtrate was concentrated by centrifugation and re-dissolved in 10 μL of 50% methanol to obtain a mass analysis sample. The mobile phase supplied to the mass analyzer was 0.1% formic acid/50% methanol solution in the positive ion mode, and 0.1% ammonia/50% methanol solution in the negative ion mode; these mobile phases were used at a flow rate of 40 μL/min. 2-μL of mass analysis samples were injected using an autosampler at 2-Minute intervals; the mass spectral intensity of the compound was measured to obtain the spectral intensity of the pharmaceutical compound contained in the SEC spin column filtrate (protein fraction eluted from SEC).

[1] = compound 1 μM, protein 0 μM (protein-free reference)
[2] = compound 1 μM, protein 23.75 μM
[3] = compound 10 μM, protein 0 μM (protein-free reference)
[4] = compound 10 μM, protein 23.75 μM
[5] = compound 10 μM, protein 47.5 μM
[6] = compound 100 μM, protein 0 μM (protein-free reference)
[7] = compound 100 μM, protein 23.75 μM
[8] = compound 100 μM, protein 47.5 μM
[9] = compound 250 μM, protein 0 μM (protein-free reference)
[10] = compound 250 μM, protein 23.75 μM
[11] = compound 250 μM, protein 47.5 μM

| Compound | spectrum intensity of the extracted mass range (compound in SEC spin column filtrate) [1] | spectrum intensity of the extracted mass range (compound in SEC spin column filtrate) [2] | spectrum intensity of the extracted mass range (compound in SEC spin column filtrate) (compound 1 μM, protein 47.5 μM) | spectrum intensity of the extracted mass range (compound in SEC spin column filtrate) [3] | spectrum intensity of the extracted mass range (compound in SEC spin column filtrate) [4] | spectrum intensity of the extracted mass range (compound in SEC spin column filtrate) [5] | spectrum intensity of the extracted mass range (compound in SEC spin column filtrate) [6] | spectrum intensity of the extracted mass range (compound in SEC spin column filtrate) [7] | spectrum intensity of the extracted mass range (compound in SEC spin column filtrate) [8] | spectrum intensity of the extracted mass range (compound in SEC spin column filtrate) [9] | spectrum intensity of the extracted mass range (compound in SEC spin column filtrate) [10] | spectrum intensity of the extracted mass range (compound in SEC spin column filtrate) [11] | interaction with the FLJ13397-expressed protein (judgement) (judged from increase of spectrum intensity with doses of compound and protein) |
| --- | --- | --- | --- | --- | --- | --- | --- | --- | --- | --- | --- | --- | --- |
| CCC[S+]([O-])c1ccc2[nH]c(NC(=O)OC)nc2c1 (stereo not shown) [Albendazole Sulfoxide] | 1514429 | 1280086 | 1361540 | 11869270 | 13449119 | 14241157 | 125971079 | 208777846 | 241218904 | 460535649 | 532900104 | 372564422 |  |
| CCCSc1ccc2nc(NC(=O)OC)[nH]c2c1 [Albendazole] | 99130 | 290428 | 247973 | 25263 | 1117765 | 603904 | 221630 | 6713076 | 3946588 | 151791 | 18185332 | 55508710 |  |
| COc1ccc(CCN2CCC(Nc3nc4ccccc4n3Cc3ccc(F)cc3)CC2)cc1 [Astemizole] | 12239048 | 16006165 | 18099237 | 13557249 | 118520633 | 36678174 | 210085727 | 1213216132 | 2237504347 | 710392964 | 1027353172 | 2019252410 | concentration-dependent interaction |
| c1ccc2[nH]cnc2c1 [Benzimidazole] | 2459590 | 1627696 | 1328076 | 2937731 | 1321952 | 2620286 | 3881633 | 4636579 | 4337586 | 9545633 | 10439034 | 13446649 |  |
| COC(=O)Nc1nc2ccccc2[nH]1 [Carbendazim] | 20852664 | 16443963 | 24660680 | 22203544 | 21673683 | 32996198 | 20562919 | 35342827 | 65044479 | 34177767 | 129995989 | 148437211 |  |
| Oc1ccc(CCN2CCC(Nc3nc4ccccc4n3Cc3ccc(F)cc3)CC2)cc1 [Desmethyl-astemizole] | 12076364 | 10091649 | 10876345 | 6489161 | 12628724 | 26276867 | 85510154 | 141884756 | 225675004 | 135192715 | 339921213 | 728918987 |  |
| COC(=O)Nc1nc2ccc(S(=O)(=O)c3ccccc3)cc2[nH]1 [Fenbendazole Sulfone] | 4524987 | 2681468 | 2967134 | 9471873 | 13569838 | 12568548 | 4055561 | 63176239 | 88590858 | 5180253 | 165761033 | 286102392 |  |
| OCCOCCN1CCN(C(c2ccccc2)c2ccc(Cl)cc2)CC1 (stereo not shown) [Hydroxyzine] | 112855827 | 126033923 | 89527484 | 134387910 | 108540593 | 115214088 | 300477422 | 567712336 | 554713461 | 922692583 | 919366054 | 1073610880 |  |
